ChEMBL document CHEMBL1121621, “Synthesis and antiarrhythmic activity of alpha, alpha-bis[(dialkylamino)alkyl]phenylacetamides” (J Med Chem, 1980)

What was measured:
Canis familiaris [1] = assay: Activity duration index was evaluated in mixed-breed or Beagle dogs after intravenous administration.; assay type: functional, Canis lupus familiaris
Canis familiaris [2] = assay: Minimum effective dose evaluated in mixed-breed or Beagle dogs after intravenous administration; assay type: functional; conditions: Canis lupus familiaris, read-out: MED
Canis familiaris [3] = assay: Antiarrhythmic activity was evaluated in mixed-breed or Beagle dogs after intravenous administration.; assay type: functional, Canis lupus familiaris, Heart
[4] = Therapeutic ratio in mixed-breed or Beagle dogs after intravenous administration of the compound.; assay type: ADME, Canis lupus familiaris; conditions: dog, in vivo, read-out: TR
Canis familiaris [5] = assay: Compound was evaluated for duration of action after oral administration at a dose 25 mg/kg to dog.; assay type: functional, Canis lupus familiaris
Canis familiaris [6] = assay: Compound was evaluated for maximum reduction of ectopic beats after oral administration at a dose 25 mg/kg to dog.; assay type: functional, Canis lupus familiaris, Heart
Canis familiaris [7] = assay: Compound was evaluated for onset of action after oral administration at a dose 25 mg/kg to dog.; assay type: functional, Canis lupus familiaris
Canis familiaris [8] = assay: Compound was evaluated for duration of action after oral administration at a dose 15 mg/kg to dog.; assay type: functional, Canis lupus familiaris
Canis familiaris [9] = assay: Compound was evaluated for onset of action after oral administration at a dose 15 mg/kg to dog.; assay type: functional, Canis lupus familiaris
Canis familiaris [10] = assay: Compound was evaluated for maximum reduction of ectopic beats after oral administration at a dose 15 mg/kg to dog.; assay type: functional, Canis lupus familiaris, Heart

SMILES	ADI (Canis familiaris [1])	minimal effective dose (Canis familiaris [2]) [mg/kg]	AR (Canis familiaris [3])	selectivity ratio [4]	Duration (Canis familiaris [5]) [min]	Reduction (Canis familiaris [6]) [%]	Onset of action (Canis familiaris [7]) [min]	Duration (Canis familiaris [8]) [min]	Onset of action (Canis familiaris [9]) [min]	Reduction (Canis familiaris [10]) [%]
CC(C)N(CCC(CCN1CCCCCC1)(C(N)=O)c1ccccc1F)C(C)C (configuration not stated)	0.78	3	6.9	7.5						
CC(C)N(CCC(CCN(C(C)C)C(C)C)(C(N)=O)c1cccc(Cl)c1)C(C)C	1.42	1.5	6.9	6.7						
CC(C)N(CCC(CCN(C(C)C)C(C)C)(C(N)=O)c1ccccc1)C(C)C	1.31	5.5	6.5	3.4	200	89	200			
CC(C)N(CCC(CCN(C(C)C)C(C)C)(C(N)=O)c1ccc(Cl)cc1)C(C)C	0.86	3	6.6	2.3	>330	100	30			
CC(C)N(CCC(CCN(C)C)(C(N)=O)c1ccccc1)C(C)C (configuration not stated)	0.4	12	2.6	> 7.5	200	100	131			
CC(C)N(CCC(CCN(C(C)C)C(C)C)(C(N)=O)c1cccc(F)c1)C(C)C	0.66	3	6	2.4						
CC(C)N(CCC(CCN1CCCCC1)(C(N)=O)c1ccc(Cl)cc1)C(C)C (configuration not stated)	0.51	3.5	6.6	1						
CC(C)N(CCC(CCN1CCCCC1)(C(N)=O)c1ccc(C(C)(C)C)cc1)C(C)C (configuration not stated)	0.82	2.5	7.8	2.9						
CC(C)N(CCC(CCCN1CCCCC1)(C(N)=O)c1ccccc1F)C(C)C (configuration not stated)	0.36	7.5	4.2	> 6						
CC(C)N(CCC(CCN(C)C1CCCCC1)(C(N)=O)c1ccccc1F)C(C)C (configuration not stated)	0.98	1.5	6	12.7	150	67	203			
CC(C)N(CCC(CCN(C)C)(C(N)=O)c1ccc(C(C)(C)C)cc1)C(C)C (configuration not stated)	0.76	5	4.9	1.3						
CC(C)N(CCC(CCN(C(C)C)C(C)C)(C(N)=O)c1c(Cl)cccc1Cl)C(C)C	1.2	2.7	6.9	4.6						
CC(C)N(CCC(CCN1CCCCC1)(C(N)=O)c1ccccc1Br)C(C)C (configuration not stated)	1.2	1.5	7.2	13						
CC(C)N(CCC(CCN(C(C)C)C(C)C)(C(N)=O)c1ccccc1F)C(C)C	1.52	3	6.1	15	200	87	90			
CC(C)N(CCC(CCN1CCCCC1)(C(N)=O)c1ccccc1)C(C)C (configuration not stated)	0.45	5.5	6.1	8.2	>300	97	169			
CC(C)N(CCC(CCN1CCCCC1)(C(N)=O)c1ccc(F)cc1)C(C)C (configuration not stated)	0.58	8.3	4.4	1						
CC(C)N(CCC(CCN(C(C)C)C(C)C)(C(N)=O)c1ccc(Cl)c(Cl)c1)C(C)C	0.63	2.5	5.8	4.6						
CC(C)N(CCC(CCN1CCOCC1)(C(N)=O)c1ccccc1)C(C)C (configuration not stated)		5	5.6	7.6	52	84	285			
CCN(CC)CCC(CCN(C(C)C)C(C)C)(C(N)=O)c1ccccc1 (configuration not stated)	0.94	7.5	4.6	5.5						
CC(C)N(CCC(CCCN(C)C)(C(N)=O)c1ccccc1)C(C)C (configuration not stated)		20								
CC(C)N(CCC(CCN(C(C)C)C(C)C)(C(N)=O)c1ccc(F)cc1F)C(C)C	0.69	4.5	7.7	4.7						
CC(C)N(CCC(CCN(C)C1CCCCC1)(C(N)=O)c1ccccc1)C(C)C (configuration not stated)	1.36	2.7	7.1	4.1				30	300	69
Cc1ccc(C(CCN(C(C)C)C(C)C)(CCN(C(C)C)C(C)C)C(N)=O)cc1		2	5.3	1.9						

SMILES	ADI (Canis familiaris [1])	minimal effective dose (Canis familiaris [2]) [mg/kg]	AR (Canis familiaris [3])	selectivity ratio [4]	Duration (Canis familiaris [5]) [min]	Reduction (Canis familiaris [6]) [%]	Onset of action (Canis familiaris [7]) [min]	Duration (Canis familiaris [8]) [min]	Onset of action (Canis familiaris [9]) [min]	Reduction (Canis familiaris [10]) [%]
CC1CCCCN1CCC(CCN(C(C)C)C(C)C)(C(N)=O)c1ccccc1F (configuration not stated)	0.6	7.5	4.6	3.2						
CC(C)N(CCC(CCN(C(C)C)C(C)C)(C(N)=O)c1ccccc1Br)C(C)C	2.16	1.5	6.1	8						
CC(C)c1ccc(C(CCN2CCCCC2)(CCN(C(C)C)C(C)C)C(N)=O)cc1 (configuration not stated)	0.75	3	6.2	2						
CC(C)N(CCC(CCN(C)C)(C(N)=O)c1ccc(F)cc1)C(C)C (configuration not stated)	0.21	15	2.2	1.1						
CC(C)N(CCC(CCn1cccc1)(C(N)=O)c1ccccc1F)C(C)C (configuration not stated)	0.59	7.5	3.6	7.3						
CC(C)N(CCC(CCN(C(C)C)C(C)C)(C(N)=O)c1ccccc1Cl)C(C)C	1.57	2.5	6.5	3.5						
CC(C)N(CCC(CCCN(C)C)(C(N)=O)c1ccccc1F)C(C)C (configuration not stated)	0.12	12.5	1.8	> 4						
CC(C)N(CCC(CCN1CC2CCC1CC2)(C(N)=O)c1ccccc1)C(C)C (configuration not stated)	1.38	3.5	6.7	4.6						
CC(C)N(CCC(CCN1CCCCC1)(C(N)=O)c1cccc(Cl)c1)C(C)C (configuration not stated)	0.7	2.3	4.4	3						
CC(C)N(CCC(CCN1C(C)CCCC1C)(C(N)=O)c1ccccc1F)C(C)C (configuration not stated)	2.2	3.3	8.3	6.7						
CC(C)N(CCC(CCN(C(C)C)C(C)C)(C(N)=O)c1cccc(C(F)(F)F)c1)C(C)C	1.5	3	6	2.4						
Cc1ccccc1C(CCN(C(C)C)C(C)C)(CCN(C(C)C)C(C)C)C(N)=O	2.57	1.5	6.6	6						
CC(C)N(CCC(CCCN1CCCCC1)(C(N)=O)c1ccccc1Cl)C(C)C (configuration not stated)	1.55	3.5	4.6	5						
CC(C)N(CCC(CCn1cccc1)(C(N)=O)c1ccccc1)C(C)C (configuration not stated)	0.13	15	2.3	> 3.3						
CC(C)N(CCC(CCN(C)C)(C(N)=O)c1ccccc1Cl)C(C)C (configuration not stated)	0.31	7.5	2.7	4.7						
CC(C)N(CCC(CCN(C(C)C)C(C)C)(C(N)=O)c1ccc(F)cc1)C(C)C	1.19	2	6.7	12	147	92	88			
C=C[C@H]1CN2CC[C@H]1C[C@@H]2[C@@H](O)c1ccnc2ccc(OC)cc12 [QUINIDINE]	0.4	13.5	2.2		110	57	110			
CC(C)N(CCC(CCN1CCCCC1)(C(N)=O)c1ccc(F)cc1F)C(C)C (configuration not stated)	0.42	6	6	> 4						
CC(C)N(CCC(CCN1CCCCCC1)(C(N)=O)c1ccccc1)C(C)C (configuration not stated)	0.68	3	6.8	8.7						
CC(C)N(CCC(CCN1CCN2CCCC2C1)(C(N)=O)c1ccccc1)C(C)C (configuration not stated)		10	2.7	> 5						
CC(C)N(CCC(CCCN1CC2CCC(CC2)C1)(C(N)=O)c1ccccc1Cl)C(C)C (configuration not stated)	0.3	7	6.3	4						
CC(C)N(CCC(CCN(C(C)C)C(C)C)(C(N)=O)c1ccc(Cl)cc1Cl)C(C)C	2.14	1.5	7.6	4						
COc1ccc(C(CCN(C(C)C)C(C)C)(CCN(C(C)C)C(C)C)C(N)=O)cc1	1.33	4	6.5	3.1						
